Data on 32 compounds can be found in ChEMBL document CHEMBL4651402, “Screening of ~5500 FDA-approved drugs and clinical candidates for anti-SARS-CoV-2 activity” (2021).

One may read the pIC50 as the negative decadic logarithm of the IC50, by convention in mol/L. Lower therefore signals a large IC50.

pIC50: −log10 of the molar value. Bounds are passed on as bounds.

One assay concerns SARS-CoV-2. Kind of assay: microbe, parasite or virus in culture. The settings on record: Severe acute respiratory syndrome coronavirus 2, Vero C1008, 48 h.
With `COc1ccc(O)cc1` [MEQUINOL], the pIC50 was below 4.70.

Compound `C[C@@H]1C[C@H]2[C@@H]3CCC4=CC(=O)C=C[C@]4(C)[C@@]3(F)[C@@H](O)C[C@]2(C)[C@@]1(O)C(=O)CO` [DEXAMETHASONE] had a pIC50 below 4.70.

The compound `CC1=C(C(=O)Nc2ccccc2)SCCO1` [CARBOXIN] showed a pIC50 below 4.70.

`Cn1c(=O)c2c(ncn2CCN2CCC(C(=O)c3ccc(F)cc3)CC2)n(C)c1=O` [FLUFYLLINE]: the pIC50 is below 4.70.

The compound `CCCCCCCCc1ccc(CCC(N)(CO)CO)cc1` [FINGOLIMOD] gave a pIC50 below 4.70.

Regarding `COc1cccc(C(=O)CCNC(C)C(O)c2ccccc2)c1` (centres undefined), the pIC50 was below 4.70.

`CC1(C)C(=O)Nc2ccc(C3=NNC(=O)CC3)cc21` [INDOLIDAN] had a pIC50 below 4.70.

Regarding `CN1C(C)(C)CC(OC(=O)CCC(=O)OC2CC(C)(C)N(C)C(C)(C)C2)CC1(C)C` [SUXEMERID], the pIC50 was below 4.70.

Take `CCOC(=O)C1=C(CN2CCOCC2)NC(c2nccs2)=N[C@@H]1c1ccc(F)cc1Br`: the pIC50 is below 4.70.

Turning to `CCCCc1ncc(C=C(Cc2cccs2)C(=O)O)n1Cc1ccc(C(=O)O)cc1`, the pIC50 is below 4.70.

Take `N#CCCCSC(=N)N` [4-ISOTHIOUREIDOBUTYRONITRILE]: the pIC50 was below 4.70.

On to `CN1CC[C@@]23CCCC[C@@H]2C1Cc1ccc(O)cc13`, for which the pIC50 is below 4.70.

Regarding `O=C(O)CCC(=O)O` [SUCCINIC ACID], the pIC50 was below 4.70.

`CCCCCCCCCCCCCCCC(=O)OCC(NC(=O)C(Cl)Cl)C(O)c1ccc([N+](=O)[O-])cc1` (centres undefined) showed a pIC50 below 4.70.

Compound `CC(COc1ccccc1)NC(C)C(O)c1ccc(O)cc1` (centres undefined) [ISOXSUPRINE] gave a pIC50 below 4.70.

In turn, `OC(c1ccc(Cl)cc1)(c1ccc(Cl)cc1)C1CC1` [PROCLONOL] showed a pIC50 below 4.70.

Compound `C#C[C@]1(O)CCC2C3CCC4=CC(=O)CCC4C3CCC21CC` (some centres undefined) showed a pIC50 below 4.70.

For the compound `CC12CCC3C(CC=C4CC(OS(=O)(=O)O)CCC43C)C1CCC2=O` (centres undefined), the pIC50 was below 4.70.

On to `NS(=O)(=O)c1cc2c(cc1Cl)NCNS2(=O)=O` [HYDROCHLOROTHIAZIDE], for which the pIC50 is below 4.70.

With `CC1(C)O[C@@H]2C[C@H]3[C@@H]4CCC5=CC(=O)C=C[C@]5(C)[C@@]4(F)[C@@H](O)C[C@]3(C)[C@]2(C(=O)CO)O1` [TRIAMCINOLONE ACETONIDE], the pIC50 is below 4.70.

For `COc1ccc2c(c1)CC[C@H](CN(C)CC(=O)O)[C@@H]2c1ccccc1` [ORG-25935], the pIC50 was below 4.70.

`C[C@@H](O)[C@H](N)C(=O)O` [THREONINE] had a pIC50 below 4.70.

Turning to `C=CCN1Cc2ccccc2-c2ccccc2C1` [AZAPETINE], the pIC50 is below 4.70.

Compound `O[C@@H](COc1cccc2ncccc12)CN1CCN([C@@H]2c3ccccc3[C@@H]3[C@H](c4ccccc42)C3(F)F)CC1` [ZOSUQUIDAR] showed a pIC50 below 4.70.

In turn, `COc1ccc2c(c1)CN(C(=O)CCN1CCC(Cc3ccccc3)CC1)CCS2` had a pIC50 below 4.70.

In the case of `CCN(CC)CCOC(=O)C(c1ccccc1)C1CCCCC1` (centres undefined) [DROFENINE], the pIC50 is below 4.70.

The compound `COc1c2ccoc2c(OC)c2oc(=O)ccc12` [ISOPIMPINELLIN] gave a pIC50 below 4.70.

`CCOC(=O)[C@H](CCc1ccccc1)CC1(C(=O)N[C@H]2CCc3ccccc3N(CC(=O)O)C2=O)CCCC1`: the pIC50 is below 4.70.

`CN(C)CCOC(=O)COc1ccc(Cl)cc1` [MECLOFENOXATE] gave a pIC50 below 4.70.

`C/C1=C/C[C@@H](/C(C)=C/c2csc(C)n2)OC(=O)C[C@H](O)C(C)(C)C(=O)[C@H](C)[C@@H](O)[C@@H](C)CCC1` [EPOTHILONE D]: the pIC50 was below 4.70.

Compound `O=C(O)CCCO` [OXYBATE] had a pIC50 below 4.70.

Consider `COc1cc(C(=O)NCc2ccc(OCCN(C)C)cc2)cc(OC)c1OC` [TRIMETHOBENZAMIDE], for which the pIC50 is below 4.70.

Staying with this assay, now noted: Severe acute respiratory syndrome coronavirus 2, Vero C1008, 48 h, read-out: pIC50 (converted).
With `COc1ccc(O)cc1` [MEQUINOL], the IC50 is above 20 µM.

For the compound `C[C@@H]1C[C@H]2[C@@H]3CCC4=CC(=O)C=C[C@]4(C)[C@@]3(F)[C@@H](O)C[C@]2(C)[C@@]1(O)C(=O)CO` [DEXAMETHASONE], the IC50 is above 20 µM.

For the compound `CC1=C(C(=O)Nc2ccccc2)SCCO1` [CARBOXIN], the IC50 was above 20 µM.

With `Cn1c(=O)c2c(ncn2CCN2CCC(C(=O)c3ccc(F)cc3)CC2)n(C)c1=O` [FLUFYLLINE], the IC50 is above 20 µM.

On to `CCCCCCCCc1ccc(CCC(N)(CO)CO)cc1` [FINGOLIMOD], for which the IC50 is above 20 µM.

Regarding `COc1cccc(C(=O)CCNC(C)C(O)c2ccccc2)c1` (centres undefined), the IC50 was above 20 µM.

`CC1(C)C(=O)Nc2ccc(C3=NNC(=O)CC3)cc21` [INDOLIDAN]: the IC50 is above 20 µM.

Turning to `CN1C(C)(C)CC(OC(=O)CCC(=O)OC2CC(C)(C)N(C)C(C)(C)C2)CC1(C)C` [SUXEMERID], the IC50 was above 20 µM.

On to `CCOC(=O)C1=C(CN2CCOCC2)NC(c2nccs2)=N[C@@H]1c1ccc(F)cc1Br`, for which the IC50 was above 20 µM.

For the compound `CCCCc1ncc(C=C(Cc2cccs2)C(=O)O)n1Cc1ccc(C(=O)O)cc1`, the IC50 was above 20 µM.

Regarding `N#CCCCSC(=N)N` [4-ISOTHIOUREIDOBUTYRONITRILE], the IC50 is above 20 µM.

In the case of `CN1CC[C@@]23CCCC[C@@H]2C1Cc1ccc(O)cc13`, the IC50 is above 20 µM.

As for `O=C(O)CCC(=O)O` [SUCCINIC ACID], the IC50 is above 20 µM.

For `CCCCCCCCCCCCCCCC(=O)OCC(NC(=O)C(Cl)Cl)C(O)c1ccc([N+](=O)[O-])cc1` (centres undefined), the IC50 is above 20 µM.

As for `CC(COc1ccccc1)NC(C)C(O)c1ccc(O)cc1` (centres undefined) [ISOXSUPRINE], the IC50 is above 20 µM.

On to `OC(c1ccc(Cl)cc1)(c1ccc(Cl)cc1)C1CC1` [PROCLONOL], for which the IC50 is above 20 µM.

As to `C#C[C@]1(O)CCC2C3CCC4=CC(=O)CCC4C3CCC21CC` (some centres undefined), the IC50 is above 20 µM.

Take `CC12CCC3C(CC=C4CC(OS(=O)(=O)O)CCC43C)C1CCC2=O` (centres undefined): the IC50 is above 20 µM.

Regarding `NS(=O)(=O)c1cc2c(cc1Cl)NCNS2(=O)=O` [HYDROCHLOROTHIAZIDE], the IC50 is above 20 µM.

`CC1(C)O[C@@H]2C[C@H]3[C@@H]4CCC5=CC(=O)C=C[C@]5(C)[C@@]4(F)[C@@H](O)C[C@]3(C)[C@]2(C(=O)CO)O1` [TRIAMCINOLONE ACETONIDE]: the IC50 was above 20 µM.

On to `COc1ccc2c(c1)CC[C@H](CN(C)CC(=O)O)[C@@H]2c1ccccc1` [ORG-25935], for which the IC50 was above 20 µM.

As for `C[C@@H](O)[C@H](N)C(=O)O` [THREONINE], the IC50 was above 20 µM.

For `C=CCN1Cc2ccccc2-c2ccccc2C1` [AZAPETINE], the IC50 was above 20 µM.

In the case of `O[C@@H](COc1cccc2ncccc12)CN1CCN([C@@H]2c3ccccc3[C@@H]3[C@H](c4ccccc42)C3(F)F)CC1` [ZOSUQUIDAR], the IC50 is above 20 µM.

For the compound `COc1ccc2c(c1)CN(C(=O)CCN1CCC(Cc3ccccc3)CC1)CCS2`, the IC50 is above 20 µM.

As to `CCN(CC)CCOC(=O)C(c1ccccc1)C1CCCCC1` (centres undefined) [DROFENINE], the IC50 was above 20 µM.

In the case of `COc1c2ccoc2c(OC)c2oc(=O)ccc12` [ISOPIMPINELLIN], the IC50 was above 20 µM.

Consider `CCOC(=O)[C@H](CCc1ccccc1)CC1(C(=O)N[C@H]2CCc3ccccc3N(CC(=O)O)C2=O)CCCC1`, for which the IC50 is above 20 µM.

Consider `CN(C)CCOC(=O)COc1ccc(Cl)cc1` [MECLOFENOXATE], for which the IC50 is above 20 µM.

As for `C/C1=C/C[C@@H](/C(C)=C/c2csc(C)n2)OC(=O)C[C@H](O)C(C)(C)C(=O)[C@H](C)[C@@H](O)[C@@H](C)CCC1` [EPOTHILONE D], the IC50 was above 20 µM.

Take `O=C(O)CCCO` [OXYBATE]: the IC50 was above 20 µM.

As for `COc1cc(C(=O)NCc2ccc(OCCN(C)C)cc2)cc(OC)c1OC` [TRIMETHOBENZAMIDE], the IC50 is above 20 µM.
